Measured values as given in paper PMC6775102, “Lifespan-increasing drug nordihydroguaiaretic acid inhibits p300 and activates autophagy” (NPJ Aging and Mechanisms of Disease, 2019).

Molecular target: T1, p300 (Homo sapiens, UniProt Q09472)
T1 construct: gene EP300; p300 BHC (bromodomain, catalytic acetyltransferase domain, and C/H3 domain, amino acids 965–1810); also p300 HAT (amino acids 1284–1673)
T1 sequence (Q09472 965-1810): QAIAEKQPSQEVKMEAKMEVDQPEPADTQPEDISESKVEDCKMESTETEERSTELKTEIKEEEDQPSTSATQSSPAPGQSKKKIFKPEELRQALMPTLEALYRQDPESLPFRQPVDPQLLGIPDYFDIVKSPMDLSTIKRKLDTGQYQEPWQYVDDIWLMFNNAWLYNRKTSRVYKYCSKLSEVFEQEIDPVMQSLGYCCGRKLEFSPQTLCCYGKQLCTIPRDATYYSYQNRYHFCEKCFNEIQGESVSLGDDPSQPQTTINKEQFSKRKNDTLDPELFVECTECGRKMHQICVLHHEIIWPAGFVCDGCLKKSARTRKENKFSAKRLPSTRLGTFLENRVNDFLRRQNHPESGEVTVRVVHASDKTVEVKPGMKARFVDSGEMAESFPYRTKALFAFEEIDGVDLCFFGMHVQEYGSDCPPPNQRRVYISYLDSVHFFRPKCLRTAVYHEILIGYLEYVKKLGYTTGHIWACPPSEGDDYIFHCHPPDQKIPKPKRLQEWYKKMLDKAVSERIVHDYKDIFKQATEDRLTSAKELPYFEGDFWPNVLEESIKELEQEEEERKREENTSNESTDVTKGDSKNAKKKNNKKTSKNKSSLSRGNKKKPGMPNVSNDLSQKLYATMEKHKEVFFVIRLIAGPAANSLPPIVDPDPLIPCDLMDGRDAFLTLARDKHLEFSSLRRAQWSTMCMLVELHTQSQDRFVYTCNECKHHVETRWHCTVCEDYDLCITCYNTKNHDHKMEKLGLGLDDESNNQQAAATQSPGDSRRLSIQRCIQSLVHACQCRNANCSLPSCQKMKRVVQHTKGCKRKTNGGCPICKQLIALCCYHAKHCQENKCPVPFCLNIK
Assay: fluorimetric acetyltransferase assay with recombinant p300 BHC and H3 peptide; second assay with p300 HAT; supported by CETSA of p300 HAT in HEK293T cells (+[…] °C)
Assay type: biochemical

For `CC(Cc1ccc(O)c(O)c1)C(C)Cc1ccc(O)c(O)c1` (stereo not shown) [nordihydroguaiaretic acid], the IC50 was 10.3 µM.
